Data as given in patent US7166625B2, “Method for treating fibrotic diseases and other indications” (Alteon, Inc., priority 2000, dated 2007).
Structures can show the parent of a compound that is named as a salt.

Assays:
[1] = literature series of mainly imidazolium compounds; cited from earlier work
[2] = system: rodents, canines and primates; experiment: In vivo studies of vascular stiffening and collagen mass in cardiovascular tissues
Source text: (§1) Cardiovascular risk correlates more closely with the systolic and the pulse pressure than with the diastolic pressure. In diabetic patients, the cardiovascular risk profile of diabetic patients is strongly correlated to duration of diabetes, glycemic control and blood pressure. Structural matrix proteins contribute to the function of vessels and the heart, and changes in the physical behavior of cardiovascular walls are believed to be important determinants of circulatory function. In elderly individuals, the loss of compliance in the aorta leads to isolated systolic hypertension, which in turn expands the arterial wall and thereby diminishes the dynamic range of elasticity. […] Treatment with 3-[2-phenyl-2-oxoethyl]-4,5-dimethyl-thiazolium salt lead to a reduction in the mass of collagen in cardiovascular tissues.

Rats = experiment: Rat myocardial infarct after ligation of the left anterior descending coronary artery; assay type: in vivo; conditions: 10 mg/kg daily intraperitoneal, 30 days before and 14 days after coronary ligation
Method: Rats received a daily intraperitoneal dose of 10 mg/kg 3-[2-phenyl-2-oxoethyl]-4,5-dimethyl-thiazolium salt (compound A) (n=14) or placebo (n=15) for 30 days. The animals then underwent a thoracotomy and the left anterior descending coronary artery ligated. The chest was then closed and the animals allowed to recover for 14 days while continuing to be treated with compound A or placebo. The animals were then sacrificed and the hearts removed for histological examination. The weight of the infarcted tissue was 0.16±0.04 g for the placebo treated animals compared to 0.11±0.05 g for the compound A treated animals (p=0.04).

Type IV collagen = experiment: In situ hybridization studies, Type IV collagen expression
Source text: as §1

[3] = system: elderly patients with pulse pressures greater than 60 mm Hg; experiment: Phase IIa clinical trial; assay type: in vivo, human
Source text: When the heart pumps blood into the vascular system, the ability of the arteries to expand helps to push blood through the body. When arteries become stiff, as they do in the natural process of aging, the ability of the arteries to expand is diminished and also has consequences for the heart. The heart has to work harder to pump the blood into the stiff arteries, and eventually hypertrophies (enlarges in size) to accomplish this. A hypertrophied heart is an inefficient pump, and is one of the disorders that leads to congestive heart failure. […] The potential clinical benefit of this is to lessen the effort that the heart must expend to push blood throughout the body. The effect is also believed to contribute to preventing hypertrophy and subsequent inefficiency of the heart, which inefficiency would contribute to congestive heart failure.
Atherosclerosis is a disease that involves deposition of blood lipids in plaque in the arteries throughout the body. In coronary arteries, accumulation of plaque progressively leads to reduced coronary flow, with occlusion of the arteries causing focal death of cardiac tissue (myocardial infarction, heart attack). If the amount of tissue that dies is large enough, death ensures. In a Phase IIa trial, one compound believed to work by a mechanism shared by the compounds of the invention, 3-[2-phenyl-2-oxoethyl]-4,5-dimethyl-thiazolium salt, […] the amount of circulating triglycerides (lipids). […] Reducing local deposits of plaque should eventually lessen the risk of myocardial infarction and death due to heart attacks.
Pulse pressure is the difference between systolic and diastolic blood pressure. In a young human, systolic pressure is typically 120 mm Hg and diastolic pressure is 80 mm Hg, resulting in a pulse pressure of 40 mm Hg. With age, in many individuals pulse pressure increases, largely due to the increase in systolic pressure that results from stiff vessel disease. In individuals with pulse pressure greater than 60 mm Hg there is an increased risk of death from cardiovascular morbidities.

dog model for diabetes = experiment: Dog model for diabetes, ventricular elasticity; assay type: in vivo
Source text: as §1

TGFbeta = experiment: In situ hybridization studies, TGFbeta expression
Source text: as §1

| Compound | glucose lowering effect [1] | mass of collagen in cardiovascular tissues ([2]; in vivo) | vascular stiffening ([2]; in vivo studies in rodents, canines and primates) | thickness of the ventricular wall in the infarcted zone (Rats; p=0.09 vs placebo) [mm] | weight of the infarcted tissue (Rats; placebo 0.16±0.04 g, p=0.04) [g] | expression of Type IV collagen (Type IV collagen) | stiffness of arteries, measured by the ratio of stroke volume (ml) to pulse pressure (mm Hg) ([3]; Phase IIa clinical trial) | amount of circulating triglycerides (lipids) ([3]; Phase IIa trial) | pulse pressure ([3]; Phase IIa trial, elderly patients with pulse pressures greater than 60 mm Hg, statistically significant) | end diastolic pressure and end diastolic volume, indicators of ventricular elasticity (dog model for diabetes) | expression of TGFbeta (TGFbeta) |
| --- | --- | --- | --- | --- | --- | --- | --- | --- | --- | --- | --- |
| 3-[2-(3,5-Dimethoxyphenyl)-2-oxoethyl]-oxazolium | inactive |  |  |  |  |  |  |  |  |  |  |
| Cc1sc[n+](CC(=O)c2ccccc2)c1C [compound A, 3-[2-phenyl-2-oxoethyl]-4,5-dimethyl-thiazolium salt] |  | reduction | substantially ameliorating vascular stiffening | 2.56±0.22 | 0.11 ± 0.05 | reduces | reverse the stiffness of arteries | increased | reduced | returned to a value at about the mid-point between the disease impaired value and the value for control dogs | reduces |
